Measured values published in patent US20130217664A1, “NOVEL COMPOUNDS USEFUL FOR THE TREATMENT OF DEGENERATIVE AND INFLAMMATORY DISEASES” (priority 2012, published 2013).
Like-named read-outs stand apart in the source and are kept apart here.

Experiments:
human JAK3 = biological target: T1, human JAK3 (Homo sapiens, UniProt P52333); assay: JAK3 inhibition assay; type: biochemical; conditions: recombinant human JAK3 catalytic domain; polyGT substrate
T1 construct: catalytic domain (amino acids 781-1124; catalog number PV3855); purchased Invitrogen PV3855
T1 sequence (P52333 781-1124): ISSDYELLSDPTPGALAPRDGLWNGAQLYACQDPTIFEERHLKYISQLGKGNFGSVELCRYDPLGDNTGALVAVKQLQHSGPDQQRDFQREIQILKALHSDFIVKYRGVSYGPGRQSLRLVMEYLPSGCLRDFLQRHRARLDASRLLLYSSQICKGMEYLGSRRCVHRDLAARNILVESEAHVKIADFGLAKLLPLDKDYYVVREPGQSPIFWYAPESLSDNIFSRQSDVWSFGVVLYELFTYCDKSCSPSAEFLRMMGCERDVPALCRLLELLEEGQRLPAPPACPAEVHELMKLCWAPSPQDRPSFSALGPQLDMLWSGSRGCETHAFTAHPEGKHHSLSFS
Summary of the method: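 Radiometric kinase assay: 0.5 ng JAK3 with 2.5 μg polyGT in Tris pH 7.5/MgCl2 buffer, 1 μM ATP plus 0.25 μCi 33P-γ-ATP, 1% DMSO, 45 min at 30 °C, stopped with phosphoric acid.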

[1] = test system: pSTAT1(2)-luciferase reporter in HeLa cells triggered with human OSM; assay: JAK-STAT signalling assay; type: cell-based; conditions: read-out: JAK-STAT IC50
Summary of the method: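 Compound added 60 min before 33 ng/mL (final) human OSM; after overnight stimulation at 37 °C, luciferase signal from a transiently transfected pSTAT1(2) reporter in HeLa cells was read, with LacZ as internal control. EC50 derived from percent-inhibition dose-response curves.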

[2] = Homo sapiens, HeLa, HeLa cells, pSTAT1(2)-luciferase reporter, human OSM 33 ng/mL
[3] = HeLa cells, pSTAT1(2)-luciferase reporter, human OSM 33 ng/mL

| IC50 (human JAK3) | IC50 [1, 2] | IC50 [1, 3] | Structure (SMILES) | IC50 ([1]; Homo sapiens, HeLa) |
| --- | --- | --- | --- | --- |
| > 1 µM | > 1 µM |  | CN(c1ccc(O)cc1)c1cc2c(cn1)ncn2C [Compound 17, 4-(methyl(1-methyl-1H-imidazo[4,5-c]pyridin-6-yl)amino)phenol] |  |
| > 1 µM | > 1 µM |  | CN(c1ccc(CC#N)cc1)c1cc2c(cn1)ncn2C [Compound 26, 2-(4-(Methyl(1-methyl-1H-imidazo[4,5-c]pyridin-6-yl)amino)phenyl)acetonitrile] |  |
| > 1 µM | > 1 µM |  | COC(=O)c1ccc(N(C)c2cc3c(cn2)ncn3C)c(C)c1 [Compound 27, Methyl 3-methyl-4-(methyl(1-methyl-1H-imidazo[4,5-c]pyridin-6-yl)amino)benzoate] |  |
| > 1 µM | > 1 µM |  | CCc1cc(F)ccc1N(C)c1cc2c(cn1)ncn2C [Compound 28, N-(2-Ethyl-4-fluorophenyl)-N,1-dimethyl-1H-imidazo[4,5-c]pyridin-6-amine] |  |
| > 1 µM | > 1 µM |  | Cc1cc(CO)ccc1N(C)c1cc2c(cn1)ncn2C [Compound 29, (3-Methyl-4-(methyl(1-methyl-1H-imidazo[4,5-c]pyridin-6-yl)amino)phenyl) MeOH] |  |
| > 1 µM | > 1 µM |  | CNC(=O)c1ccc(N(C)c2cc3c(cn2)ncn3C)c(C)c1 [Compound 30, N,3-Dimethyl-4-(methyl(1-methyl-1H-imidazo[4,5-c]pyridin-6-yl)amino)-benzamide] |  |
| > 1 µM | > 1 µM |  | Cc1cc(C#N)ccc1N(C)c1cc2c(cn1)ncn2C [Compound 31, 3-Methyl-4-(methyl(1-methyl-1H-imidazo[4,5-c]pyridin-6-yl)amino)benzonitrile] |  |
| > 1 µM | > 1 µM |  | Cc1cc(C(N)=O)ccc1N(C)c1cc2c(cn1)ncn2C [Compound 32, 3-Methyl-4-(methyl(1-methyl-1H-imidazo[4,5-c]pyridin-6-yl)amino)benzamide] |  |
| > 1 µM |  | > 1 µM | COc1ccc(COc2ccc(N(C)c3cc4c(cn3)ncn4C)c(C)c2)cc1 [Compound 33, N-(4-(4-Methoxybenzyloxy)-2-methylphenyl)-N,1-dimethyl-1H-imidazo[4,5-c]pyridin-6-amine] |  |
| 0.501 to 1 µM | > 1 µM |  | CCc1ccccc1N(CC1CC1)c1cc2c(cn1)ncn2C [Compound 35, N-(cyclopropylmethyl)-N-(2-ethylphenyl)-1-methyl-1H-imidazo[4,5-c]pyridin-6-amine] |  |
| 0.501 to 1 µM | > 1 µM |  | Cc1cc(O)ccc1N(C)c1cc2c(cn1)ncn2C [Compound 38, 3-Methyl-4-(methyl(1-methyl-1H-imidazo[4,5-c]pyridin-6-yl)amino)phenol] |  |
| 0.501 to 1 µM | > 1 µM |  | CN(c1cc2c(cn1)ncn2C)c1ccccc1OC(F)F [Compound 39, N-(2-(difluoromethoxy)phenyl)-N,1-dimethyl-1H-imidazo[4,5-c]pyridin-6-amine] |  |
| > 1 µM |  | > 1 µM | COc1ccc(COc2ccc(C)c(N(C)c3cc4c(cn3)ncn4C)c2)cc1 [Compound 43, N-(5-(4-methoxybenzyloxy)-2-methylphenyl)-N,1-dimethyl-1H-imidazo[4,5-c]pyridin-6-amine] |  |
| 0.501 to 1 µM | > 1 µM |  | Cc1cc(OCC#N)ccc1N(C)c1cc2c(cn1)ncn2C [Compound 47, 2-(3-methyl-4-(methyl(1-methyl-1H-imidazo[4,5-c]pyridin-6-yl)amino)phenoxy)acetoni-trile] |  |
| > 1 µM | > 1 µM |  | Cc1cc(OCCCC#N)ccc1N(C)c1cc2c(cn1)ncn2C [Compound 48, 4-(3-methyl-4-(methyl(1-methyl-1H-imidazo[4,5-c]pyridin-6-yl)amino)phenoxy)butane nitrile] |  |
| > 1 µM |  | > 1 µM | Cc1ccc(OCc2ccccc2)cc1N(C)c1cc2c(cn1)ncn2C [Compound 56, N-(5-(benzyloxy)-2-methylphenyl)-N,1-dimethyl-1H-imidazo[4,5-c]pyridin-6-amine] |  |
| 0.101 to 0.5 µM | > 1 µM |  | Cc1ccc(OCC#N)cc1N(C)c1cc2c(cn1)ncn2C [Compound 57, 2-(4-methyl-3-(methyl(1-methyl-1H-imidazo[4,5-c]pyridin-6-yl)amino)phenoxy)acetoni-trile] |  |
| 0.101 to 0.5 µM | > 1 µM |  | Cc1ccc(OCCCC#N)cc1N(C)c1cc2c(cn1)ncn2C [Compound 60, 4-(4-methyl-3-(methyl(1-methyl-1H-imidazo[4,5-c]pyridin-6-yl)amino)phenoxy)butane nitrile] |  |

| IC50 (human JAK3) | IC50 [1, 2] | IC50 [1, 3] | Structure (SMILES) | IC50 ([1]; Homo sapiens, HeLa) |
| --- | --- | --- | --- | --- |
| > 1 µM |  | > 1 µM | Cc1ccc(OCc2cccnc2)cc1N(C)c1cc2c(cn1)ncn2C [Compound 61, N,1-dimethyl-N-(2-methyl-5-(pyridin-3-ylmethoxy)phenyl)-1H-imidazo[4,5-c]pyridin-6-amine] |  |
| > 1 µM |  | > 1 µM | Cc1ccc(OCc2ccc(Cl)cc2)cc1N(C)c1cc2c(cn1)ncn2C [Compound 62, N-(5-(4-chlorobenzyloxy)-2-methylphenyl)-N,1-dimethyl-1H-imidazo[4,5-c]pyridin-6-amine] |  |
| 0.101 to 0.5 µM | > 1 µM |  | Cc1c(OCC#N)cccc1N(C)c1cc2c(cn1)ncn2C [Compound 64, 2-(2-methyl-3-(methyl(1-methyl-1H-imidazo[4,5-c]pyridin-6-yl)amino)phenoxy)acetoni-trile] |  |
| 0.501 to 1 µM |  | > 1 µM | Cc1cc(-c2cn[nH]c2)ccc1N(C)c1cc2c(cn1)ncn2C [Compound 71, N,1-Dimethyl-N-(2-methyl-4-(1H-pyrazol-4-yl)phenyl)-1H-imidazo[4,5-c]pyridin-6-amine] |  |
| > 1 µM | > 1 µM |  | Cc1cc(-c2cncnc2)ccc1N(C)c1cc2c(cn1)ncn2C [Compound 72, N,1-dimethyl-N-(2-methyl-4-(pyrimidin-5-yl)phenyl)-1H-imidazo[4,5-c]pyridin-6-amine] |  |
| > 1 µM |  | > 1 µM | Cc1cc(-c2cnn(C)c2)ccc1N(C)c1cc2c(cn1)ncn2C [Compound 73, N,1-dimethyl-N-(2-methyl-4-(1-methyl-1H-pyrazol-4-yl)phenyl)-1H-imidazo[4,5-c]pyridin-6-amine] |  |
| > 1 µM | > 1 µM |  | CCc1cc(C(=O)OC)ccc1N(C)c1cc2c(cn1)ncn2C [Compound 80, Methyl 3-ethyl-4-(methyl(1-methyl-1H-imidazo[4,5-c]pyridin-6-yl)amino)benzoate] |  |
| > 1 µM | > 1 µM |  | CCc1ccc(C#N)cc1N(C)c1cc2c(cn1)ncn2C [Compound 83, 4-ethyl-3-(methyl(1-methyl-1H-imidazo[4,5-c]pyridin-6-yl)amino)benzonitrile] |  |
| 0.501 to 1 µM | 0.501 to 1 µM |  | CCc1ccc(F)cc1N(C)c1cc2c(cn1)ncn2C [Compound 84, N-(2-ethyl-5-fluorophenyl)-N,1-dimethyl-1H-imidazo[4,5-c]pyridin-6-amine] |  |
| > 1 µM | > 1 µM |  | CCc1cc(C(=O)NC)ccc1N(C)c1cc2c(cn1)ncn2C [Compound 85] |  |
| > 1 µM | > 1 µM |  | CCc1cc(C(=O)NCCC#N)ccc1N(C)c1cc2c(cn1)ncn2C [Compound 86, N-(2-Cyanoethyl)-3-ethyl-4-(methyl(1-methyl-1H-imidazo[4,5-c]pyridin-6-yl)amino)benzamide] |  |
| > 1 µM |  | > 1 µM | Cc1ccc(Oc2ccc(C#N)nc2)cc1N(C)c1cc2c(cn1)ncn2C [Compound 91, 5-(4-methyl-3-(methyl(1-methyl-1H-imidazo[4,5-c]pyridin-6-yl)amino)phenoxy)picolino-nitrile] |  |
| 0.501 to 1 µM | 0.001 to 0.5 µM |  | CCc1cc(-c2cccnc2)ccc1N(C)c1cc2c(cn1)ncn2C [Compound 94, N-(2-ethyl-4-(pyridin-3-yl)phenyl)-N,1-dimethyl-1H-imidazo[4,5-c]pyridin-6-amine] |  |
| 0.501 to 1 µM | > 1 µM |  | CCc1cc(C(=O)NCc2ccccc2)ccc1N(C)c1cc2c(cn1)ncn2C [Compound 98, N-benzyl-3-ethyl-4-(methyl(1-methyl-1H-imidazo[4,5-c]pyridin-6-yl)amino)benzamide] |  |
| > 1 µM | > 1 µM |  | CCNC(=O)c1ccc(N(C)c2cc3c(cn2)ncn3C)c(CC)c1 [Compound 102, N,3-diethyl-4-(methyl(1-methyl-1H-imidazo[4,5-c]pyridin-6-yl)amino)benzamide] |  |
| 0.101 to 0.5 µM | > 1 µM |  | CCc1cc(C(C)(C)O)ccc1N(C)c1cc2c(cn1)ncn2C [Compound 103, 2-(3-Ethyl-4-(methyl(1-methyl-1H-imidazo[4,5-c]pyridin-6-yl)amino)phenyl)propan-2-ol] |  |
| 0.101 to 0.5 µM | > 1 µM |  | CCc1cc(COC)ccc1N(C)c1cc2c(cn1)ncn2C [Compound 105, N-(2-Ethyl-4-(methoxymethyl)phenyl)-N,1-dimethyl-1H-imidazo[4,5-c]pyridin-6-amine] |  |
| 0.101 to 0.5 µM | 0.501 to 1 µM |  | CCc1cc(O)ccc1N(C)c1cc2c(cn1)ncn2C [Compound 107, 3-ethyl-4-(methyl(1-methyl-1H-imidazo[4,5-c]pyridin-6-yl)amino)phenol] |  |

| Structure (SMILES) | IC50 (human JAK3) | IC50 [1, 2] | IC50 [1, 3] | IC50 ([1]; Homo sapiens, HeLa) |
| --- | --- | --- | --- | --- |
| CCc1ccccc1N(CC)c1cc2c(cn1)ncn2C [Compound 34, N-Ethyl-N-(2-ethylphenyl)-1-methyl-1H-imidazo[4,5-c]pyridin-6-amine] | 0.501 to 1 µM |  |  | > 1 µM |
| Cc1ccc(OCC(C)C)cc1N(C)c1cc2c(cn1)ncn2C [Compound 63, N-(5-isobutoxy-2-methylphenyl)-N,1-dimethyl-1H-imidazo[4,5-c]pyridin-6-amine] | > 1 µM | > 1 µM |  |  |
